Source: PubChem BioAssay (NCI)
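Dose response: 5 concentrations. Exposure: 48 h. Format: 96-well plates. Endpoint: linear interpolation; highest concentration if not reached. Here, GI50 denotes the concentration required for 50% inhibition of growth. TGI is the concentration that stops growth completely.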 Where a SMILES comes first, the peptide text is derived from it. The star is where a group is joined. Boc = CC(C)(C)OC(=O)*; OBn = c1ccc(CO*)cc1

How the values were obtained:
Experiment in all cases: DTP human tumour cell line panel, 48 h
[1] = test system: HT29 colon
[2] = test system: A549 NSCLC
[3] = test system: SK-MEL-2 melanoma
[4] = test system: SW-620 colon
[5] = test system: SK-MEL-28 melanoma
[6] = test system: MOLT-4 leukemia
[7] = test system: HOP-62 NSCLC
[8] = test system: UACC-62 melanoma
[9] = test system: NCI/ADR-RES ovarian
[10] = test system: HOP-92 NSCLC

Structure (SMILES) | TGI [1] | TGI [2] | TGI [3] [µM] | TGI [4] | TGI [5] | TGI [6] | TGI [7] | TGI [8] | TGI [9] | TGI [10] [µM] | GI50 [1] | GI50 [2] | GI50 [3] [µM] | GI50 [4] | GI50 [5] | GI50 [6] | GI50 [9] | GI50 [10] [µM] | GI50 [7] | GI50 [8]
CC(C)(C)OC[C@H](O)CC#N | > 100 µM | > 100 µM | > 100 | > 100 µM | > 100 µM | > 100 µM | > 100 µM | > 100 µM | – | – | – | – | – | – | – | – | – | – | – | –
Cc1ccc(S(=O)(=O)c2c(O)c3ccccc3n(C)c2=O)cc1 | > 100 µM | > 100 µM | > 100 | > 100 µM | > 100 µM | – | > 100 µM | > 100 µM | > 100 µM | > 100 | – | – | – | – | – | – | – | – | – | –
CSc1cc(N)ccc1N=Nc1ccc(S(N)(=O)=O)cc1 | > 100 µM | 71.2 µM | 62.3 | > 100 µM | > 100 µM | > 100 µM | 79 µM | 32 µM | 91.2 µM | 68.2 | – | – | – | – | – | – | – | – | – | –
COc1ccc(C(=O)N2c3ccccc3Sc3ccccc32)c(C(F)(F)F)c1 | > 100 µM | > 100 µM | > 100 | > 100 µM | > 100 µM | > 100 µM | > 100 µM | > 100 µM | > 100 µM | 3.91 | 0.362 µM | 0.515 µM | 0.677 | 0.425 µM | 9.17 µM | 0.406 µM | 0.37 µM | 0.152 | 0.684 µM | 0.438 µM
COC(=O)[C@@]12CCCC(=O)[C@@H]1[C@H]1CCCC[C@H]12 | > 100 µM | > 100 µM | > 100 | > 100 µM | > 100 µM | > 100 µM | > 100 µM | > 100 µM | > 100 µM | > 100 | – | – | – | – | – | – | – | – | – | –
O=C(N[C@H]1c2ccsc2/C(=N/O)[C@H]1O)C(F)(F)F | > 100 µM | > 100 µM | > 100 | > 100 µM | > 100 µM | > 100 µM | > 100 µM | > 100 µM | > 100 µM | > 100 | – | – | – | – | – | – | – | – | – | –
O=C1/C(=C2\Sc3c(ccc(Cl)c3Cl)C2=O)Sc2c1ccc(Cl)c2Cl | > 100 µM | > 100 µM | > 100 | > 100 µM | > 100 µM | > 100 µM | > 100 µM | > 100 µM | > 100 µM | > 100 | – | – | – | – | – | – | – | – | – | –
O=C1C(Br)=C(c2ccccc2)S(=O)c2ccccc21 (stereo unspecified) | 63.5 µM | 62 µM | 33.8 | 38.4 µM | 42.1 µM | – | 5.68 µM | 26.6 µM | > 100 µM | 36.8 | – | – | – | – | – | – | – | – | – | –
CC1(Cl)CC2C(CC1Sc1nnnn1-c1ccccc1)C2(C)C (stereo unspecified) | > 100 µM | > 100 µM | > 100 | > 100 µM | > 100 µM | > 100 µM | > 100 µM | > 100 µM | – | > 100 | – | – | – | – | – | – | – | – | – | –
c1ccc2c(Cc3nnc4sc(SSc5nn6c(Cc7c[nH]c8ccccc78)nnc6s5)nn34)c[nH]c2c1 | 44.4 µM | 88.4 µM | – | 37.6 µM | > 100 µM | 70.6 µM | 30.2 µM | 33.7 µM | 44.4 µM | > 100 | – | – | – | – | – | – | – | – | – | –
CC(C)(C)OC(=O)NC(Cc1ccccc1)C(=O)NC(Cc1ccccc1)C(=O)NCC(=O)OCc1ccccc1 (stereo not drawn) (Boc-Phe-Phe-Gly-OBn; configuration not given here) | 40.4 µM | – | > 100 | 28.4 µM | 42.7 µM | 56 µM | 91.7 µM | 38.7 µM | > 100 µM | > 100 | – | – | – | – | – | – | – | – | – | –
C[C@]12CC[C@H](O)CC1=CC[C@@H]1[C@@H]2CC[C@]2(C)/C(=N/OCCN3CCCC3)CC[C@@H]12 | 10.3 µM | – | 45.1 | 31.1 µM | 30.6 µM | 34.8 µM | 53.2 µM | 30.1 µM | 52.7 µM | – | – | – | – | – | – | – | – | – | – | –
CCOc1cc(C2CC(c3ccc(NS(=O)(=O)c4cc([N+](=O)[O-])ccc4C)cc3)=NN2)ccc1O (stereo unspecified) | 72.2 µM | > 100 µM | 49.9 | > 100 µM | > 100 µM | 48.8 µM | – | 30.3 µM | 71.3 µM | > 100 | – | – | – | – | – | – | – | – | – | –
NCCCCNCCCNC(=O)c1nc(-c2csc(CCN)n2)sc1Cl | > 100 µM | > 100 µM | > 100 | > 100 µM | > 100 µM | > 100 µM | > 100 µM | > 100 µM | – | > 100 | – | – | – | – | – | – | – | – | – | –
C[n+]1c2ccccc2c(C(=O)Nc2ccc(S(=O)(=O)N=C(N)N)cc2)c2ccccc21 | > 100 µM | > 100 µM | > 100 | > 100 µM | > 100 µM | > 100 µM | > 100 µM | > 100 µM | > 100 µM | – | – | – | – | – | – | – | – | – | – | –
O=S1(=O)c2ccccc2NC(=S)CC1c1ccccc1 (stereo unspecified) | > 100 µM | > 100 µM | – | – | > 100 µM | > 100 µM | > 100 µM | > 100 µM | > 100 µM | – | – | – | – | – | – | – | – | – | – | –
Cc1cc(C)n(CN(Cn2nc(C)cc2C)C2CCCCC2)n1 | 42.4 µM | > 100 µM | 36.7 | 92.7 µM | 42.5 µM | – | 69.6 µM | 41.7 µM | 42.5 µM | 87.5 | – | – | – | – | – | – | – | – | – | –
COc1ccc2nc3cc(Cl)ccc3c(NCCNCCCNC(=O)c3cc(-c4ccccc4)nc4ccccc34)c2c1 | > 100 µM | > 100 µM | – | > 100 µM | > 100 µM | > 100 µM | > 100 µM | > 100 µM | > 100 µM | > 100 | – | – | – | – | – | – | – | – | – | –
CCc1ccc2c(c1)CC1(C2)Cc2cc3c(cc2C1)C(=O)CC3 (stereo unspecified) | 23.9 µM | 71.8 µM | 16.8 | – | – | – | 78.5 µM | > 100 µM | > 100 µM | 52.7 | – | – | – | – | – | – | – | – | – | –
COc1cc(/C=C2/N=C(c3ccccc3)N(C3=NNC4(C(=O)N3)c3ccccc3-c3ccccc34)NC2=O)ccc1O | 49.1 µg/mL | 15 µg/mL | – | 73.6 µg/mL | 60.4 µg/mL | 123 µg/mL | 56.2 µg/mL | 48.3 µg/mL | > 150 µg/mL | – | 27.7 µg/mL | 15 µg/mL | – | 31.1 µg/mL | 31.3 µg/mL | 35.7 µg/mL | 45.8 µg/mL | – | 23.4 µg/mL | 27.4 µg/mL
